Experimental data published in patent USRE37556E1, “Superoxide radical inhibitor” (Otsuka Pharmaceutical Co., Ltd., priority 1990, dated 2002).
Counter-ions that a name gives are not always drawn.

test system: human neutrophilic leukocytes; assay: Inhibition of superoxide radical (O2-) generation in FMLP-stimulated human neutrophilic leukocytes (ferricytochrome C method); format: cell-based; settings: Homo sapiens, Leukocyte, Table 16; comparative test present compounds vs prior art compounds; NE = not effective
Text: (1) Activity for inhibiting the generation of superoxide radical (O2^−) in human neutrophilic leukocytes
That is, a whole blood obtained from a healthy adult and treated by anticoagulation method was subjected to a dextranhypotonic treatment to obtain leukocyte cells. The leukocyte cells were then subjected to a density gradient ultracentrifugation by Ficoll-Paque to obtain a neutrophilic leukocyte fraction.
O2^− generation was examined by the ferricytochrome C method in accordance with the method of B. N. Cronstein et al. [Journal of Experimental Medicine, vol. […] Each test compound was dissolved in dimethyl sulfoxide (DMSO); the solution was added to neutrophilic leukocytes before the addition of FMLP; then, the neutrophilic leukocytes were pre-incubated at 37° C.

| Compound | IC50 [nM] |
| --- | --- |
| CCOc1cc(-c2nc(-c3cc(C(=O)O)ccc3O)cs2)ccc1OC [compound 104, 4-(3-Carboxy-6-hydroxyphenyl)-2-(3-ethoxy-4-methoxy-phenyl)thiazole] | 34 |
| CCCCOc1ccc(-c2nc(-c3ccc(O)c(C(=O)O)c3)cs2)cc1OCCCC [compound 111, 4-(3-Carboxy-4-hydroxyphenyl)-2-(3,4-dibutoxyphenyl)thiazole, reference compound] | 8300 |
| CCOc1ccc(-c2nc(-c3cccc(C(=O)O)c3)cs2)cc1OCC [compound 87, 4-(3-Carboxyphenyl)-2-(3,4-diethoxyphenyl)thiazole] | 4.8 |

same assay, conditions: Homo sapiens, Leukocyte, pH 7.4, Table 15; O2- generation, 3x10^-7 M FMLP, cytochalasin B, 37° C., pH 7.4

| Compound | IC50 [nM] |
| --- | --- |
| CCOc1ccc(-c2nc(-c3cc(C(=O)OC)cc([N+](=O)[O-])c3O)cs2)cc1OCC [compound 101, 4-(3-Methoxycarbonyl-5-nitro-6-hydroxyphenyl)-2-(3,4-diethoxyphenyl)thiazole] | 10 |
| CCOc1cc(-c2nc(-c3cc(C(=O)O)ccc3O)cs2)ccc1OC [compound 104, 4-(3-Carboxy-6-hydroxyphenyl)-2-(3-ethoxy-4-methoxy-phenyl)thiazole] | 34 |
| CCOc1ccc(-c2nc(-c3ccc4c(c3)CCC(=O)N4)cs2)cc1OCC [compound 59, 2-(3,4-Diethoxyphenyl)-4-(3,4-dihydrocarbostyril-6-yl)thiazole] | 80 |
| CCOc1ccc(-c2nc(-c3ccc(N(C)C)c(C(=O)O)c3)cs2)cc1OCC [compound 146, 2-(3,4-Diethoxyphenyl)-4-(3-carboxy-4-dimethylaminophenyl)thiazole] | 110 |
| CCOc1ccc(-c2nc(-c3ccc(NCCN4CCCCC4)c(C(=O)OC)c3)cs2)cc1OCC [compound 117, 2-(3,4-Diethoxyphenyl)-4-{3-methoxycarbonyl-4-[2-(1-piperidinyl)ethylamino]phenyl}thiazole dihydrochloride] | 460 |
| CCOc1ccc(-c2nc(-c3ccccc3)cs2)cc1OCC [compound 116, 2-(3,4-Diethoxyphenyl)-4-phenylthiazole] | 370 |
| C=C(C)Cc1cc(-c2csc(-c3ccc(OCC)c(OCC)c3)n2)cc(C(=O)O)c1O [compound 84, 4-{3-Carboxy-4-hydroxy-5-(2-methyl-2-propenyl)-phenyl}-2-(3,4-diethoxyphenyl)thiazole] | 20 |
| COc1ccc(-c2nc(-c3ccc4[nH]c(=O)c(=O)[nH]c4c3)cs2)cc1OC [compound 57, 2-(3,4-Dimethoxyphenyl)-4-(2,3-dioxo-1,2,3,4-tetrahydro-quinoxalin-6-yl)thiazole] | 300 |
| COc1ccc(C(=O)c2nc(-c3ccc4c(c3)CCC(=O)N4)cs2)cc1OC [compound 58, 2-(3,4-Dimethoxybenzoyl)-4-(3,4-dihydrocarbostyril-6-yl)thiazole] | 1000 |
| CCOc1ccc(-c2nc(-c3cc(C(=O)O)c(N)cc3O)cs2)cc1OCC [compound 95, 4-(3-Carboxy-4-amino-6-hydroxyphenyl)-2-(3,4-diethoxyphenyl)thiazole] | 8.7 |
| CC(=O)Oc1ccc(-c2csc(-c3cccnc3)n2)cc1OC(C)=O [compound 76, 4-(3,4-Diacetyloxyphenyl)-2-(3-pyridyl)thiazole] | 600 |
| CCOc1ccc(-c2nc(-c3ccc(OCC)c(C(=O)O)c3)cs2)cc1OCC [compound 134, 2-(3,4-Diethoxyphenyl)-4-(4-ethoxy-3-carboxyphenyl)thiazole] | 130 |
| C=CCc1cc(-c2csc(-c3ccc(OCC)c(OCC)c3)n2)cc(C(=O)O)c1O [compound 83, 4-(3-Carboxy-4-hydroxy-5-allylphenyl)-2-(3,4-diethoxyphenyl)thiazole] | 40 |
| CCOc1ccc(-c2nc(-c3ccc(C(=O)O)cn3)cs2)cc1OCC [compound 143, 2-(3,4-Diethoxyphenyl)-4-(3-carboxy-6-pyridyl)-thiazole] | 270 |
| CCOc1ccc(-c2nc(-c3ccc(C(=O)OC)o3)cs2)cc1OCC [compound 121, 2-(3,4-Diethoxyphenyl)-4-(2-methoxycarbonyl-5-furyl)thiazole] | 38 |
| CCCOc1ccc(-c2csc(-c3ccc(OCC)c(OCC)c3)n2)cc1C(=O)O [compound 138, 2-(3,4-Diethoxyphenyl)-4-(3-carboxy-4-n-propoxyphenyl)thiazole] | 140 |
| CCOc1ccc(-c2nc(-c3ccc(O)c(C(=O)OCCN(C)C)c3)cs2)cc1OCC [compound 118, 2-(3,4-Diethoxyphenyl)-4-[4-hydroxy-3-(2-dimethylaminoethoxycarbonyl)phenyl]thiazole trihydrochloride] | 560 |
| CCOc1ccc(-c2nc(-c3ccc(C#N)cc3)cs2)cc1OCC [compound 67, 4-(4-Cyanophenyl)-2-(3,4-diethoxyphenyl)thiazole] | 70 |
| CCOc1ccc(-c2nc(-c3cc(O)cc(O)c3)cs2)cc1OCC [compound 61, 4-(3,5-Dihydroxyphenyl)-2-(3,4-diethoxyphenyl)-thiazole] | 3 |
| CCOc1ccc(-c2nc(-c3ccc(O)c(CC)c3)cs2)cc1OCC [compound 98, 4-(3-Ethyl-4-hydroxyphenyl)-2-(3,4-Diethoxyphenyl)thiazole] | 83 |
| CCOc1ccc(-c2nc(-c3ccc(O)c(C(=O)OC)c3)cs2)cc1OCC [compound 80, 4-(4-Hydroxy-3-methoxycarbonylphenyl)-2-(3,4-diethoxyphenyl)thiazole] | 10 |

| Compound | IC50 [nM] |
| --- | --- |
| CCOc1ccc(-c2nc(-c3cc(C)c(O)c(C(=O)O)c3)cs2)cc1OCC [compound 85, 4-(3-Carboxy-4-hydroxy-5-methylphenyl)-2-(3,4-diethoxyphenyl)thiazole] | 80 |
| CCOc1ccc(-c2nc(-c3cccc(C(=O)O)n3)cs2)cc1OCC [compound 115, 4-(6-Carboxy-2-pyridyl)-2-(3,4-diethoxyphenyl)-thiazole] | 80 |
| CCOc1ccc(-c2nc(-c3cncc(C(=O)O)c3)cs2)cc1OCC [compound 135, 2-(3,4-Diethoxyphenyl)-4-(3-carboxy-5-pyridyl)-thiazole hydrochloride] | 35 |
| CCOc1ccc(-c2nc(-c3ccc(O)c(C(=O)OC)c3)cs2)cc1OC [compound 86, 4-(3-Methoxycarbonyl-4-hydroxyphenyl)-2-(3-methoxy-4-ethoxyphenyl)thiazole] | 33 |
| CCOc1ccc(-c2nc(-c3ccc(C(=O)O)s3)cs2)cc1OCC [compound 129, 2-(3,4-Diethoxyphenyl)-4-(2-carboxy-5-thienyl)-thiazole] | 82 |
| CCOc1ccc(-c2nc(-c3ccc(O)c(N)c3)cs2)cc1OCC [compound 66, 4-(4-Hydroxy-3-aminophenyl)-2-(3,4-diethoxyphenyl)thiazole dihydrochloride] | 60 |
| CCCCCCCCCOC(=O)c1cc(-c2csc(-c3ccc(OCC)c(OCC)c3)n2)ccc1O [compound 120, 2-(3,4-Diethoxyphenyl)-4-(4-hydroxy-3-n-nonyloxy-carbonylphenyl)thiazole] | 490 |
| CCOc1ccc(-c2nc(-c3cc(CC)c(O)c(C(=O)O)c3)cs2)cc1OCC [compound 126, 2-(3,4-Diethoxyphenyl)-4-(3-carboxy-4-hydroxy-5-ethylphenyl)thiazole] | 14 |
| C=Cc1cc(-c2csc(-c3ccc(OCC)c(OCC)c3)n2)cc(C(=O)O)c1O [compound 147, 2-(3,4-Diethoxyphenyl)-4-(3-carboxy-4-hydroxy-5-vinylphenyl)thiazole] | 10 |
| CCOc1ccc(-c2nc(-c3ccc(C(=N)N)cc3)cs2)cc1OCC [compound 69, 4-(4-Amidinophenyl)-2-(3,4-diethoxyphenyl)thiazole hydrochloride] | 100 |
| CCOc1ccc(-c2nc(-c3ccc(O)c(C(=O)O)c3)c(C)s2)cc1OCC [compound 99, 4-(3-Carboxy-4-hydroxyphenyl)-2-(3,4-diethoxyphenyl)-5-methylthiazole] | 720 |
| CCCCOC(=O)c1cc(-c2csc(-c3ccc(OCC)c(OCC)c3)n2)ccc1OCCCC [compound 136, 2-(3,4-Diethoxyphenyl)-4-(3-n-butoxycarbonyl-4-n-butoxyphenyl)thiazole] | 130 |
| CCOc1ccc(-c2nc(-c3cccc(C(=O)O)c3)cs2)cc1OCC [compound 87, 4-(3-Carboxyphenyl)-2-(3,4-diethoxyphenyl)thiazole] | 4.8 |
| CCOc1ccc(-c2nc(-c3ccc(O)cc3)cs2)cc1OCC [compound 64, 4-(4-Hydroxyphenyl)-2-(3,4-diethoxyphenyl)thiazole] | 40 |
| CCOc1ccc(-c2nc(-c3cc(C(=O)O)c4oc(C)cc4c3)cs2)cc1OCC [compound 130, 2-(3,4-Diethoxyphenyl)-4-(2-methyl-7-carboxy-5-benzofuryl)thiazole] | 240 |
| CCOc1ccc(-c2nc(-c3cc(N)c(O)c(C(=O)OC)c3)cs2)cc1OCC [compound 89, 4-(3-Amino-4-hydroxy-5-methoxycarbonylphenyl)-2-(3,4-diethoxyphenyl)thiazole] | 7 |
| CCN1CCN(c2cc(-c3csc(-c4ccc(O)c(O)c4)n3)ccc2OC)CC1 [compound 74, 4-[4-Methoxy-3-(4-ethyl-1-piperazinyl)phenyl]-2-(3,4-dihydroxyphenyl)thiazole trihydrochloride] | 300 |
| CCOc1ccc(-c2nc(-c3cc(CC(C)C)c(O)c(C(=O)O)c3)cs2)cc1OCC [compound 93, 4-(3-Carboxy-4-hydroxy-5-isobutylphenyl)-2-(3,4-diethoxyphenyl)thiazole] | 12 |
| CCCOc1cc(-c2nc(-c3ccc4c(c3)CCC(=O)N4)cs2)ccc1OC [compound 68, 4-(3,4-Dihydrocarbostyril-6-yl)-2-(4-methoxy-3-propoxy-phenyl)thiazole] | 80 |
| COc1ccc(-c2nc(-c3c(O)cc(O)cc3O)cs2)cc1OC [compound 70, 4-(2,4,6-Trihydroxyphenyl)-2-(3,4-dimethoxyphenyl) thiazole] | 200 |

same assay, conditions: Table 15; O2- generation, 3x10^-7 M FMLP, cytochalasin B, 37° C., pH 7.4

| Compound | IC50 [nM] |
| --- | --- |
| COC(=O)C1OC(Oc2ccc(-c3csc(-c4ccc(OC)c(OC)c4)n3)cc2)C(O)C(O)C1O [compound 77, Methyl 4-[2-(3,4-dimethoxyphenyl)thiazole-4-yl]phenyl-β-D-glucopyranosidouronate] | 800 |
